Assay results published in paper PMC2972649 (Journal of Medicinal Chemistry, 2010).

How the values were obtained:
Nek2 = biological target: T1, Nek2 (Homo sapiens, UniProt P51955); assay type: biochemical; settings: for fold improvement in Nek2 potency on substitution of the thiophene: comparator not given
T1 sequence (P51955 1-445): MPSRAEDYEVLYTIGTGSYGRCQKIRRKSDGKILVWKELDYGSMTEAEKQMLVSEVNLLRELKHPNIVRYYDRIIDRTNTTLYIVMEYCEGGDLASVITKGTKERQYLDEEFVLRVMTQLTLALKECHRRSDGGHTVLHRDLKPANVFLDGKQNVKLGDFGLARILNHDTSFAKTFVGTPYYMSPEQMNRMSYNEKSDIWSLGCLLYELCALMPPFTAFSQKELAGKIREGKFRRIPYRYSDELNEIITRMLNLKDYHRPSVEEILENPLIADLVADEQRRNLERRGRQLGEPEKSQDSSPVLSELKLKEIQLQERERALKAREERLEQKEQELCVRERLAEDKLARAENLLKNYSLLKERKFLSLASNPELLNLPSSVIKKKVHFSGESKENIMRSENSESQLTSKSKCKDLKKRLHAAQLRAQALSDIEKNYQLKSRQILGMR

Nek1 = biological target: T2, Nek1 (Homo sapiens, UniProt Q96PY6); assay: Nek1 Caliper kinase assay; assay type: biochemical; settings: Nek2 versus Nek1
T2 sequence (Q96PY6 1-505 limits assumed): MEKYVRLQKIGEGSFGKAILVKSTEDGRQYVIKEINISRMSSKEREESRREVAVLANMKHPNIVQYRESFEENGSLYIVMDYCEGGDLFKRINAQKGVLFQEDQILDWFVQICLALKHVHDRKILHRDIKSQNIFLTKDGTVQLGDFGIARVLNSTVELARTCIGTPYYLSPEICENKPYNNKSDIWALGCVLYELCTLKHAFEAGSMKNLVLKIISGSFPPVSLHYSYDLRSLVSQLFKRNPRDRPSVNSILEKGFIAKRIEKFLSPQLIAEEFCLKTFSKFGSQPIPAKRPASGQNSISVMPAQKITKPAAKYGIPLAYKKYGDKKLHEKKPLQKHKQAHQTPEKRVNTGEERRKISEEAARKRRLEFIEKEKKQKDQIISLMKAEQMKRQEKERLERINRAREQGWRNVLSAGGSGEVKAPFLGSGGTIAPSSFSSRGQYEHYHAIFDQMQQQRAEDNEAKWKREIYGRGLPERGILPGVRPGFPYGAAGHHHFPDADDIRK

Row | Structure (SMILES) | fold improvement in Nek2 potency on substitution of the thiophene (Nek2) | selectivity against Nek1 (Nek1) | fold loss of Nek2 potency compared to hit 2 (Nek2)
1 | Nc1nccnc1N1CCC(C(=O)O)CC1 [Compound 8] | – | – | approximately 50 fold
2 | COc1cccc(-c2cnc(N)c(N3CCC(C(=O)O)CC3)n2)c1 [Compound 5] | – | – | 4-5 fold
3 | COc1cc(-c2cnc(N)c(N3CC[C@H](C(=O)O)[C@H](C)C3)n2)cc(OC)c1OC [Compound 20, (−)-(3S,4S)-1-(3-Amino-6-(3,4,5-trimethoxyphenyl)pyrazin-2-yl)-3-methylpiperidine-4-carboxylic Acid] | – | – | 10

Other lines, results leading:

Row | fold improvement in Nek2 potency on substitution of the thiophene (Nek2) | selectivity against Nek1 (Nek1) | fold loss of Nek2 potency compared to hit 2 (Nek2) | Structure (SMILES)
4 | approximately 4 fold | – | – | Nc1ncc(-c2sccc2C2CC2)nc1N1CCC(C(=O)O)CC1 [Compound 36]
5 | approximately 4 fold | approximately 10 fold | – | CCc1ccsc1-c1cnc(N)c(N2CCC(C(=O)O)CC2)n1 [Compound 35]
